From patent publication US20110230472A1, “RING-FUSED AZOLE DERIVATIVE HAVING PI3K-INHIBITING ACTIVITY” (Shionogi & Co., Ltd., priority 2008, published 2011)

Molecular target: PI-3 kinase γ (Homo sapiens, UniProt P48736)
Test: PI3Kγ inhibitory activity, PI3-kinase HTRF assay (inhibition ratio)
Format: biochemical
Conditions: 0.5 h; PI3Kγ, compound at 50 μM
Procedure: The PI3Kγ inhibitory activity of a compound was evaluated using PI3-kinase HTRF™ assay (Millipore) according to the following procedure:
To each well of a testing plate, 5 μL of a compound solution containing 10% DMSO (200 μmol/L or 40 μmol/L as the concentration of the compound), 5 μL of a substrate solution (40 μmol/L phosphatidylinositol (4,5)-bisphosphate, 20 mmol/L MgCl2, 10 mmol/L DTT), and 5 μL of a enzyme solution (80 μg/mL PI-3 kinase γ, 10 mmol/L MgCl2, 5 mmol/L DTT) were added, and then allowed to stand for 10 minutes.
Then, 5 μL of a reaction solution (40 μmol/L ATP, 10 mmol/L MgCl2, 5 mmol/L DTT) was added thereto. After reacting for 30 minutes at room temperature, 5 μL of a solution containing EDTA and biotinylated phosphatidylinositol (3,4,5)-triphosphate were added to quench the reaction.
5 μL of a detection reagent containing a europium-labeled anti-GST antibody, the GST-tagged PH domain, and allophycocyanin-labeled streptavidin was added thereto. After 18 hours, HTRF (excitation wavelength: 330 nm, measured wavelengths: 620 nm and 665 nm) was measured.
HTRF ratio was defined as the value obtained by dividing the amount of fluorescence obtained at the measured wavelength 665 nm by the amount of fluorescence obtained at 620 nm. The HTRF ratio in the absence of a compound was defined as 100% activity and the HTRF ratio in the absence of PI-3 kinase γ was defined as 0% activity to calculate an inhibition ratio which was defined as the PI3Kγ inhibitory activity of a compound at 50 μmol/L or 10 μmol/L.

Sequence of PI-3 kinase γ (P48736 whole entry): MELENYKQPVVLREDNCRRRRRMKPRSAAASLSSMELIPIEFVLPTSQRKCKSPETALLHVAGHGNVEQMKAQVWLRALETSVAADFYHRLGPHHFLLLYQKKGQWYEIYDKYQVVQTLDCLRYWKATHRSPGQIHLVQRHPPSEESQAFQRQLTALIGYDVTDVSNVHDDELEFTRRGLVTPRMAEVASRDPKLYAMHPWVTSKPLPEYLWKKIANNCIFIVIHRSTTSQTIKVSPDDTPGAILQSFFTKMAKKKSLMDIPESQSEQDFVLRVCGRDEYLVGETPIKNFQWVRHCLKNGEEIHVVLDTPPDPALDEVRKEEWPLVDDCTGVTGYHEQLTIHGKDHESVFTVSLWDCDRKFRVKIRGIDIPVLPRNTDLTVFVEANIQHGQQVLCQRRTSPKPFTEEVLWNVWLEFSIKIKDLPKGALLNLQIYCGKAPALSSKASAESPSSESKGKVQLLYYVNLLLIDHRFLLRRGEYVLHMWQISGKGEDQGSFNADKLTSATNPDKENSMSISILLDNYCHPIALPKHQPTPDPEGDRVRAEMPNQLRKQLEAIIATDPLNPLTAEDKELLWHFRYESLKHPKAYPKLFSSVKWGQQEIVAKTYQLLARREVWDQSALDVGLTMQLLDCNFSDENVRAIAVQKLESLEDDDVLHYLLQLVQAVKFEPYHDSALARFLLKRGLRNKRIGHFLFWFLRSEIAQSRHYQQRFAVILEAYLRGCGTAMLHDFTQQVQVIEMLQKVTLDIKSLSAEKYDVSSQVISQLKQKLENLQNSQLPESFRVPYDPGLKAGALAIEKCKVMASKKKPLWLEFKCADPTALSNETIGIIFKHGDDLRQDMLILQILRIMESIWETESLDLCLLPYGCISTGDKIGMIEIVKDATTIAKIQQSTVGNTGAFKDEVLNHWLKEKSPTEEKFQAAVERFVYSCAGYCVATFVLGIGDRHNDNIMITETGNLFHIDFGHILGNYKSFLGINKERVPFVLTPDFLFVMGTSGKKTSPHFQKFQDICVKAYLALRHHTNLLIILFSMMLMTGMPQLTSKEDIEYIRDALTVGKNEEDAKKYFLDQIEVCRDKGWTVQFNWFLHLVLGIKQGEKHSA

| inhibition at 50 µM [%] | SMILES |
| --- | --- |
| ≥ 95 | CC(=O)Nc1cc2n(n1)CCN2C(=O)c1ccccc1 [Compound I-2] |
| ≥ 95 | COc1ccc(Nc2cc3n(n2)CCN3C(=O)c2ccccc2)cc1 [Compound I-4] |
| 89 | CNC(=O)Nc1cc2n(n1)CCN2C(=O)c1ccccc1 [Compound I-5] |
| 90 | CC(=O)Nc1cc2n(C(=O)c3ccccc3)ccn2n1 [Compound I-6] |
| ≥ 95 | CC(=O)Nc1cc2n(C(=O)OC(C)(C)C)ccn2n1 [Compound I-7] |
| ≥ 95 | CNC(=O)Nc1cc2n(n1)CCN2C(=O)OC(C)(C)C [Compound I-8] |
| 77 | CNC(=O)Nc1cc2n(n1)CCN2C(=O)c1ccc2c(c1)CCO2 [Compound I-35] |
| 73 | CNC(=O)Nc1cc2n(n1)CCN2C(=O)c1nc2ccccc2s1 [Compound I-40] |
| ≥ 95 | CNC(=O)Nc1cc2n(n1)CCN2c1ccccc1 [Compound I-50] |
| ≥ 95 | CCOC(=O)CNC(=O)Nc1cc2n(n1)CCN2C(=O)OC(C)(C)C [Compound I-57] |
| 94 | CC(C)(C)OC(=O)N1CCn2nc(NC(=O)NCC(=O)O)cc21 [Compound I-59] |
| ≥ 95 | CNC(=O)Nc1cc2n(n1)CCN(c1cncc(OC)c1)C2 [Compound I-65] |
| 92 | CNC(=O)Nc1nc2c(s1)CN(C(=O)OC(C)(C)C)CC2 [Compound I-66] |
| ≥ 95 | CNC(=O)Nc1cc2n(n1)CCN2c1cccc(Cl)c1 [Compound I-67] |
| ≥ 95 | CNC(=O)Nc1cc2n(n1)CCN2c1cncc(OC)c1 [Compound I-79] |
| ≥ 95 | CNC(=O)Nc1cc2n(n1)CCN2c1cccnc1 [Compound I-80] |
| 75 | CNC(=O)Nc1cc2n(n1)CCN(c1cccc(C(=O)OC)c1)C2 [Compound I-81] |
| ≥ 95 | CCOC(=O)c1cccc(N2CCn3nc(NC(=O)NC)cc32)c1 [Compound I-83] |
| ≥ 95 | CNC(=O)Nc1cc2n(n1)CCN2c1cccc(-c2cnco2)c1 [Compound I-84] |
| ≥ 95 | CCOC(=O)c1ccc(N2CCn3nc(NC(=O)NC)cc32)cc1 [Compound I-85] |
| 90 | CNC(=O)Nc1cc2n(n1)CCN(c1cccnc1)C2 [Compound I-86] |
| 85 | CNC(=O)Nc1cc2n(n1)CCN2c1ccccn1 [Compound I-88] |
| ≥ 95 | CNC(=O)Nc1cc2n(n1)CCN2c1cccc(C(=O)O)c1 [Compound I-91] |
| 92 | CNC(=O)Nc1nc2c(s1)CN(c1nccc(OC)n1)CC2 [Compound I-93] |
| ≥ 95 | CNC(=O)Nc1nc2c(s1)CN(c1ccnc(Cl)n1)CC2 [Compound I-94] |
| 93 | CNC(=O)Nc1nc2c(s1)CN(c1nccc(C(F)(F)F)n1)CC2 [Compound I-95] |

| inhibition at 50 µM [%] | SMILES |
| --- | --- |
| ≥ 95 | CNC(=O)Nc1cc2n(n1)CCN2c1ccc(C(=O)O)cc1 [Compound I-97] |
| ≥ 95 | CNC(=O)Nc1nc2c(s1)CN(c1cc(C(=O)OC)nc(Cl)n1)CC2 [Compound I-100] |
| ≥ 95 | CNC(=O)Nc1nc2c(s1)CN(c1cc(C(=O)O)nc(Cl)n1)CC2 [Compound I-101] |
| ≥ 95 | CNC(=O)Nc1cc2n(n1)CCN2c1ccc(Cl)cc1 [Compound I-102] |
| ≥ 95 | CNC(=O)Nc1cc2n(n1)CCN2c1cccc(O)c1 [Compound I-105] |
| ≥ 95 | CNC(=O)Nc1nc2c(s1)CN(c1cc(Cl)ncn1)CC2 [Compound I-106] |
| ≥ 95 | CNC(=O)Nc1nc2c(s1)CN(c1cc(OC)nc(OC)n1)CC2 [Compound I-107] |
| ≥ 95 | CNC(=O)Nc1nc2c(s1)CN(c1cc(C(N)=O)nc(Cl)n1)CC2 [Compound I-108] |
| ≥ 95 | CNC(=O)Nc1nc2c(s1)CN(c1cc(C(=O)NC3CCCC3)nc(Cl)n1)CC2 [Compound I-110] |
| ≥ 95 | CNC(=O)Nc1nc2c(s1)CN(c1cc(Cl)nc(Cl)n1)CC2 [Compound I-111] |
| 83 | CNC(=O)Nc1cc2n(n1)CCN2c1ccc(OC)cc1 [Compound I-114] |
| ≥ 95 | CNC(=O)Nc1cc2n(n1)CCN2c1nc2ccccc2s1 [Compound I-115] |
| ≥ 95 | COC(=O)c1cc(N2CCc3nc(NC(C)=O)sc3C2)nc(Cl)n1 [Compound I-116] |
| 76 | CC(C)(C)OC(=O)N1CCc2nc(NC(=O)Nc3cccc(Cl)c3)sc2C1 [Compound I-117] |
| ≥ 95 | CNC(=O)Nc1nc2c(s1)CN(c1cc(C(=O)NC)nc(Cl)n1)CC2 [Compound I-119] |
| 76 | CNC(=O)Nc1nc2c(s1)CN(c1cc(N)nc(Cl)n1)CC2 [Compound I-122] |
| ≥ 95 | CNC(=O)Nc1nc2c(s1)CN(c1cncc(Cl)n1)CC2 [Compound I-123] |
| ≥ 95 | COC(=O)c1cc(N2CCc3nc(NC(=O)c4cccc(Cl)c4)sc3C2)nc(Cl)n1 [Compound I-126] |
| 79 | CNC(=O)Nc1cc2n(n1)CCN2c1cc(C(=O)OC)nc(Cl)n1 [Compound I-127] |
| ≥ 95 | CNC(=O)Nc1nc2c(s1)CN(c1cc(Cl)nc(SC)n1)CC2 [Compound I-128] |
| 81 | CCOC(=O)CNC(=O)Nc1cc2n(n1)CCN2c1ccccc1 [Compound I-129] |
| ≥ 95 | CC(=O)Nc1cc2n(n1)CCN2C(=O)OC(C)(C)C [Compound I-130] |
| ≥ 95 | O=C(O)CNC(=O)Nc1cc2n(n1)CCN2c1ccccc1 [Compound I-132] |
| ≥ 95 | CNC(=O)Nc1cc2n(n1)CCN(c1cc(OC)nc(OC)n1)C2 [Compound I-133] |
| ≥ 95 | O=C(Nc1cc2n(n1)CCN2c1ccccc1)c1ccccc1 [Compound I-135] |
| 87 | Nc1cc(N2CCc3nc(NC(=O)c4cccc(Cl)c4)sc3C2)nc(Cl)n1 [Compound I-137] |

| inhibition at 50 µM [%] | SMILES |
| --- | --- |
| ≥ 95 | CNC(=O)Nc1nc2c(s1)CN(c1cc(Oc3ccccc3)nc(OC)n1)CC2 [Compound I-138] |
| ≥ 95 | COc1cccc(N2CCn3nc(NC(C)=O)cc32)c1 [Compound I-139] |
| ≥ 95 | CC(=O)Nc1cc2n(n1)CCN2c1ccccc1 [Compound I-140] |
| ≥ 95 | CNC(=O)Nc1cc2n(n1)CCN2c1ccncc1 [Compound I-141] |
| ≥ 95 | COc1cc(N2CCc3nc(NC(=O)NCCC(=O)OC(C)(C)C)sc3C2)nc(OC)n1 [Compound I-143] |
| ≥ 95 | CNC(=O)Nc1cc2n(n1)CCN2c1ccc(C(=O)OC)c(OC)c1 [Compound I-144] |
| ≥ 95 | CNC(=O)Nc1nc2c(s1)CN(c1cc(OC)nc(N)n1)CC2 [Compound I-145] |
| ≥ 95 | CNC(=O)Nc1cc2n(n1)CCN2c1cc(Br)cc(C(=O)OC)c1 [Compound I-146] |
| ≥ 95 | CNC(=O)Nc1nc2c(s1)CN(c1cc(Oc3ccccc3)nc(SC)n1)CC2 [Compound I-147] |
| ≥ 95 | CNC(=O)Nc1cc2n(n1)CCN2c1ccc(C(=O)O)c(OC)c1 [Compound I-148] |
| ≥ 95 | CNC(=O)Nc1cc2n(n1)CCN2c1cc(Br)cc(C(=O)O)c1 [Compound I-149] |
| ≥ 95 | CNC(=O)Nc1nc2c(s1)CN(c1cc(Oc3ccccc3)nc(OC(C)(C)C)n1)CC2 [Compound I-150] |
| 80 | CNC(=O)Nc1nc2c(s1)CN(c1cc(Oc3ccccc3)nc(O)n1)CC2 [Compound I-151] |
| ≥ 95 | CNC(=O)Nc1cc2n(n1)CCN2c1cccc(CC(=O)OC(C)(C)C)c1 [Compound I-152] |
| 74 | CNC(=O)Nc1cc2n(n1)CCN2c1cccc(CC(=O)O)c1 [Compound I-153] |
| ≥ 95 | CNC(=O)Nc1cc2n(n1)CCN2c1cc(C(=O)OC)cc(-c2ccccc2)c1 [Compound I-161] |
| ≥ 95 | CNC(=O)Nc1cc2n(n1)CCN2c1cc(Nc2ccccc2)cc(C(=O)OC)c1 [Compound I-162] |
| ≥ 95 | CNC(=O)Nc1cc2n(n1)CCN2c1cc(C(=O)O)cc(-c2ccccc2)c1 [Compound I-163] |
| ≥ 95 | CNC(=O)Nc1cc2n(n1)CCN2c1cccc(-c2cnc(C)o2)c1 [Compound I-164] |
| ≥ 95 | CNC(=O)Nc1cc2n(n1)CCN2c1cccc(C(C)=O)c1 [Compound I-165] |
| ≥ 95 | CNC(=O)Nc1cc2n(n1)CCN2c1cc(Nc2ccccc2)cc(C(=O)O)c1 [Compound I-166] |
| 92 | CNC(=O)Nc1cc2n(n1)CCN2c1cc(Br)cc(C(=O)OC(C)(C)C)c1 [Compound I-167] |
| ≥ 95 | CNC(=O)Nc1cc2n(n1)CCN2c1ccc(F)c(OC)c1 [Compound I-168] |
| ≥ 95 | CNC(=O)Nc1cc2n(n1)CCN2c1ccc(C(=O)N(C)C)cc1 [Compound I-169] |
| ≥ 95 | CNC(=O)Nc1nc2c(s1)CN(c1cc(C(=O)NCCO)nc(Cl)n1)CC2 [Compound I-170] |

| SMILES | inhibition at 50 µM [%] |
| --- | --- |
| CNC(=O)Nc1cc2n(n1)CCN2C(=O)Oc1ccccc1 [Compound I-51] | 87 |
